Among the data in PubChem BioAssay AID330 (DTP/NCI, 2004) are T/C values, retold here.

Where “and” joins values, the source holds several entries; their conditions need not be identical. Identical values can stand only once. Inconclusive results and toxic doses are left out.

This assay has as its system P388 leukemia ip, CD2F1 mice, survival T/C. Nature of the assay: NCI In Vivo Anticancer Drug Screen. Data for tumor model P388 Leukemia (intraperitoneal) in CD2F1 (CDF1) mice. To be noted: endpoint: median survival time, higher = longer survival. Put shortly: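 Mice carrying the transplanted tumor received test compound or vehicle. Survival was recorded in each group, and the value is the treated-group measurement divided by that of the vehicle-treated control group.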

The mark [1] stands for this setting: dose: 25.0 mg/kg/injection, schedule: Q01DX005 (ip), vehicle: saline with Tween-80.
Where [2] appears, read: dose: 50.0 mg/kg/injection, schedule: Q01DX005 (ip), vehicle: saline with Tween-80.
The mark [3] stands for this setting: dose: 100.0 mg/kg/injection, schedule: Q01DX005 (ip), vehicle: saline with Tween-80.
The mark [4] stands for this setting: dose: 60.0 mg/kg/injection, schedule: Q01DX005 (ip), vehicle: Klucel (hydroxypropylcellulose) (HPC).
Setting [5] is: dose: 50.0 mg/kg/injection, schedule: Q01DX005 (ip), vehicle: Klucel (hydroxypropylcellulose) (HPC).
Setting [6] is: dose: 100.0 mg/kg/injection, schedule: Q01DX005 (ip), vehicle: Klucel (hydroxypropylcellulose) (HPC).
[7] abbreviates: dose: 200.0 mg/kg/injection, schedule: Q01DX005 (ip), vehicle: Klucel (hydroxypropylcellulose) (HPC).
[8] abbreviates: dose: 50.0 mg/kg/injection, schedule: Q01DX009 (ip), vehicle: Klucel (hydroxypropylcellulose) (HPC).
[9] abbreviates: dose: 100.0 mg/kg/injection, schedule: Q01DX009 (ip), vehicle: Klucel (hydroxypropylcellulose) (HPC).
Where [10] appears, read: dose: 6.25 mg/kg/injection, schedule: Q01DX005 (ip), vehicle: saline with Tween-80.
Where [11] appears, read: dose: 12.5 mg/kg/injection, schedule: Q01DX005 (ip), vehicle: saline with Tween-80.
Where [12] appears, read: dose: 50.0 mg/kg/injection, schedule: Q01DX009 (ip), vehicle: saline.
[13] abbreviates: dose: 100.0 mg/kg/injection, schedule: Q01DX009 (ip), vehicle: saline.
[14] abbreviates: dose: 120.0 mg/kg/injection, schedule: Q01DX005 (ip), vehicle: Klucel (hydroxypropylcellulose) (HPC).
[15] abbreviates: dose: 240.0 mg/kg/injection, schedule: Q01DX005 (ip), vehicle: Klucel (hydroxypropylcellulose) (HPC).
The mark [16] stands for this setting: dose: 60.0 mg/kg/injection, schedule: Q01DX005 (ip), vehicle: saline with Tween-80.
The mark [17] stands for this setting: dose: 120.0 mg/kg/injection, schedule: Q01DX005 (ip), vehicle: saline with Tween-80.

On to `Oc1ccc(C2c3ccccc3Oc3ccccc32)c2ccccc12`, for which the T/C is, setting by setting: (dose: 100.0 mg/kg/injection, schedule: Q01DX001 (ip), vehicle: gum acacia) 93 % of control; (dose: 200.0 mg/kg/injection, schedule: Q01DX001 (ip), vehicle: gum acacia) 105 % of control; (dose: 400.0 mg/kg/injection, schedule: Q01DX001 (ip), vehicle: gum acacia) 101 % of control.

For `O=C(O)c1cc(Cc2c[nH]c(=O)[nH]c2=O)ccc1O`, the T/C is, setting by setting: under setting [1], 111 % of control; under setting [2], 111 % of control; under setting [3], 101 % of control.

For the molecule `CN(C)C1=NC(N(C)C)=C2C=CC=C12`, the T/C (dose: 15.0 mg/kg/injection, schedule: Q01DX005 (ip), vehicle: Klucel (hydroxypropylcellulose) (HPC)) is 103 % of control; the T/C (dose: 30.0 mg/kg/injection, schedule: Q01DX005 (ip), vehicle: Klucel (hydroxypropylcellulose) (HPC)) was 97 % of control; the T/C under setting [4] was 96 % of control.

As for `CC(O)C(=O)NCCO` (configuration not stated), the T/C is, setting by setting: (dose: 50.0 mg/kg/injection, schedule: Q01DX005 (ip), vehicle: saline) 99 % of control; (dose: 100.0 mg/kg/injection, schedule: Q01DX005 (ip), vehicle: saline) 93 % of control; (dose: 200.0 mg/kg/injection, schedule: Q01DX005 (ip), vehicle: saline) 100 % of control.

On to `CN(C)/C(=N\O)c1ccccc1`, for which the T/C reads like this: (dose: 3.12 mg/kg/injection, schedule: Q04DX003 (ip), vehicle: saline) 100 % of control and 105 % of control; (dose: 6.25 mg/kg/injection, schedule: Q04DX003 (ip), vehicle: saline) 100 % of control and 90 % of control; (dose: 12.5 mg/kg/injection, schedule: Q04DX003 (ip), vehicle: saline) 100 % of control and 95 % of control.

As for `O=C1O/C(=C/c2cc(Cl)c(O)c(Cl)c2)c2ccccc21`, the T/C runs as follows: (dose: 100.0 mg/kg/injection, schedule: Q04DX002 (ip), vehicle: saline) 96 % of control; (dose: 200.0 mg/kg/injection, schedule: Q04DX002 (ip), vehicle: saline) 99 % of control; (dose: 400.0 mg/kg/injection, schedule: Q04DX002 (ip), vehicle: saline) 99 % of control.

On to `Cc1ccc(S(=O)(=O)ON=C2CC(c3ccccc3)N(C)C(c3ccccc3)C2)cc1` (configuration not stated), for which the T/C by setting is: under setting [5], 116 % of control and 101 % of control; under setting [6], 107 % of control and 104 % of control; under setting [7], 100 % of control.

In the case of `Nc1ccc([N+](=O)[O-])cc1`, the T/C reads like this: (dose: 12.5 mg/kg/injection, schedule: Q01DX009 (ip), vehicle: distilled water + Tween-80) 102 % of control; (dose: 25.0 mg/kg/injection, schedule: Q01DX009 (ip), vehicle: distilled water + Tween-80) 100 % of control; (dose: 50.0 mg/kg/injection, schedule: Q01DX009 (ip), vehicle: distilled water + Tween-80) 103 % of control; (dose: 100.0 mg/kg/injection, schedule: Q01DX009 (ip), vehicle: distilled water + Tween-80) 103 % of control; (dose: 200.0 mg/kg/injection, schedule: Q01DX009 (ip), vehicle: distilled water + Tween-80) 102 % of control.

For the molecule `CCn1c(=O)n(C)c(=O)c2[nH]c(Cl)nc21`, the T/C (dose: 16.0 mg/kg/injection, schedule: Q01DX009 (ip), vehicle: Klucel (hydroxypropylcellulose) (HPC)) is 105 % of control; the T/C (dose: 25.0 mg/kg/injection, schedule: Q01DX009 (ip), vehicle: Klucel (hydroxypropylcellulose) (HPC)) is 92 % of control; the T/C (dose: 32.0 mg/kg/injection, schedule: Q01DX009 (ip), vehicle: Klucel (hydroxypropylcellulose) (HPC)) was 104 % of control; the T/C under setting [8] is 91 % of control; the T/C (dose: 64.0 mg/kg/injection, schedule: Q01DX009 (ip), vehicle: Klucel (hydroxypropylcellulose) (HPC)) is 97 % of control; the T/C under setting [9] is 94 % of control.

For `CC1OC(=Nc2ccccc2)NC1=O` (configuration not stated), the T/C (dose: 100.0 mg/kg/injection, schedule: Q01DX001 (ip), vehicle: saline with Tween-80) was 97 % of control and the T/C (dose: 200.0 mg/kg/injection, schedule: Q01DX001 (ip), vehicle: saline with Tween-80) was 89 % of control.

For `CC(=O)Nc1ccc(C(C)C)cc1N`, the T/C is, setting by setting: under setting [5], 100 % of control; under setting [6], 101 % of control; under setting [7], 107 % of control.

Take `S=C(NCCCN1CCN(CCCNC(=S)Nc2c3ccccc3nc3ccccc23)CC1)Nc1c2ccccc2nc2ccccc12`: the T/C under setting [10] is 98 % of control; the T/C under setting [11] was 100 % of control and 110 % of control; the T/C under setting [1] is 114 % of control and 116 % of control; the T/C under setting [2] is 119 % of control and 120 % of control.

In the case of `CCOC(=O)NOCOC`, the T/C is 115 % of control under setting [12]; 114 % of control under setting [13]; 109 % of control (dose: 200.0 mg/kg/injection, schedule: Q01DX009 (ip), vehicle: saline).

Regarding `[N-]=[N+]=Nc1nn2cnnc2c2[nH]c3ccccc3c12`, the T/C runs as follows: (dose: 12.5 mg/kg/injection, schedule: Q01DX005 (ip), vehicle: Klucel (hydroxypropylcellulose) (HPC)) 104 % of control; (dose: 25.0 mg/kg/injection, schedule: Q01DX005 (ip), vehicle: Klucel (hydroxypropylcellulose) (HPC)) 108 % of control; under setting [5], 100 % of control and 101 % of control; under setting [6], 96 % of control; under setting [7], 99 % of control.

For the molecule `CCC[CH2][Sn]1([CH2]CCC)[O]OC(c2ccccc2)[O]1` (configuration not stated), the T/C was 150 % of control (dose: 4.5 mg/kg/injection, schedule: Q01DX009 (ip), vehicle: other); 115 % of control (dose: 625.0 micrograms/kg/injection, schedule: Q04DX003 (ip), vehicle: saline with Tween-80); 120 % of control (dose: 1250.0 micrograms/kg/injection, schedule: Q04DX003 (ip), vehicle: saline with Tween-80); 165 % of control (dose: 5000.0 micrograms/kg/injection, schedule: Q04DX003 (ip), vehicle: saline with Tween-80).

`CCSc1nc2ccc(NCn3nnc4ccccc43)cc2s1`: the T/C is, setting by setting: under setting [4], 98 % of control; under setting [14], 89 % of control; under setting [15], 90 % of control.

On to `COc1ccc(/C=N/OC(=S)NC2CCCCC2)cc1OC`, for which the T/C is, setting by setting: under setting [2], 102 % of control; under setting [3], 94 % of control; (dose: 200.0 mg/kg/injection, schedule: Q01DX005 (ip), vehicle: saline with Tween-80) 93 % of control.

For `COC(=O)c1nc2nnc(NC(=O)Nc3ccc(Cl)cc3)n2c(-c2ccc(Cl)cc2)c1C`, the T/C is 99 % of control under setting [16]; 99 % of control under setting [17]; 100 % of control (dose: 240.0 mg/kg/injection, schedule: Q01DX005 (ip), vehicle: saline with Tween-80).

Turning to `c1ccc2c(Cc3nn[nH]n3)noc2c1`, the T/C is, setting by setting: (dose: 50.0 mg/kg/injection, schedule: Q01DX009 (ip), vehicle: saline with Tween-80) 109 % of control; (dose: 100.0 mg/kg/injection, schedule: Q01DX009 (ip), vehicle: saline with Tween-80) 107 % of control; (dose: 200.0 mg/kg/injection, schedule: Q01DX009 (ip), vehicle: saline with Tween-80) 100 % of control.

On to `Cn1c(=O)ccc2c1nc1ccccc1[n+]2[O-]`, for which the T/C under setting [16] was 101 % of control and the T/C under setting [17] was 102 % of control.

For the molecule `CC1CN=C(c2ccc(NC(=O)c3ccc(NC(=O)c4ccc(C5=NCC(C)N5)cc4)cc3)cc2)N1` (configuration not stated), the T/C was 119 % of control and 123 % of control under setting [10]; 110 % of control under setting [11].

Regarding `COc1ccc(CCNCc2cccc(O)c2)cc1OC`, the T/C was 90 % of control under setting [8]; 92 % of control under setting [9]; 88 % of control (dose: 200.0 mg/kg/injection, schedule: Q01DX009 (ip), vehicle: Klucel (hydroxypropylcellulose) (HPC)).

On to `CCC[CH2][Sn]([CH2]CCC)([CH2]CCC)[CH2]CCN(C)C`, for which the T/C under setting [12] is 99 % of control and the T/C under setting [13] is 100 % of control.

On to `CCOC(=O)c1ccc(NC(=O)Oc2ccc(NC(C)=O)cc2)cc1`, for which the T/C was 98 % of control under setting [4], 92 % of control under setting [14] and 92 % of control under setting [15].
